Where two headings read alike, the source gives them in different places.
Assays:
IRAK4 = IRAK4 (Homo sapiens (Human), UniProt Q9NWZ3); test: IRAK4 MSD degradation in OCI-LY10; type: cell-based
Method in brief: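 OCI-LY10 cells treated with 8-point 1:3 dilutions (top 1 to 10 μM final) for 4 to 24 h at 37° C. Lysate IRAK4 measured by MSD sandwich immunoassay (2H9 capture, Y279 detection, SULFO-TAG anti-rabbit). DC50 from three-parameter logistic fit.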

OCI-LY10 = test: CTG Cell Viability Assay - OCI-LY10; type: cell-based, human; settings: OCI-LY10, 4 days, read-out: CTG Cell Viability Assay - OCI-LY10: Average external-IC50
Method in brief: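 OCI-LY10 cells exposed to 9-dose, 1:3 dilutions from 10 μM top (0.2% DMSO) for 4 days at 37° C, 5% CO2. Viability by CellTiter-Glo luminescence; IC50 from three-parameter logistic fit.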

[1] = OCI-LY10, 4 hrs, MSD, read-out: IRAK4 MSD degradation in OCI-LY10 at 4 hrs: Average external-Abs DC50
[2] = OCI-LY10, 24 hrs, MSD, read-out: IRAK4 MSD degradation in OCI-LY10 at 24 hrs: Average external-Abs DC50
[3] = OCI-LY10, 4 hrs, read-out: IRAK4 MSD degradation in OCI-LY10 at 4 hrs: DC50
[4] = OCI-LY10, 24 hrs, read-out: IRAK4 MSD degradation in OCI-LY10 at 24 hrs: DC50

Chain of IRAK4 (Q9NWZ3 whole entry): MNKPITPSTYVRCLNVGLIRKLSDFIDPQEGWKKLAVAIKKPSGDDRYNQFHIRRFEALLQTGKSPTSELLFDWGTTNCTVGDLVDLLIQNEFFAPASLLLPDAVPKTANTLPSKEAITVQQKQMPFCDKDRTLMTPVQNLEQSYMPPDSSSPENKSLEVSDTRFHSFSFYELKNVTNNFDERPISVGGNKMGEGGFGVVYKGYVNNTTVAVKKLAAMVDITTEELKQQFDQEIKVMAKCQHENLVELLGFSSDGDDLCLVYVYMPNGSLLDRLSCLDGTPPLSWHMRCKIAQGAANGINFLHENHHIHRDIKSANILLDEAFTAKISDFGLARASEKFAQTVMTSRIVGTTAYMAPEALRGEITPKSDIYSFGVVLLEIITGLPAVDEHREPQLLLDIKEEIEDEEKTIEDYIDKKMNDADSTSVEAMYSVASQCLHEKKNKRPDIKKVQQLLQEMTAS

Compound | DC50 (IRAK4; [1]) [µM] | DC50 (IRAK4; [2]) [µM] | IC50 (OCI-LY10; Homo sapiens, OCI-Ly10, 96 h) [µM] | DC50 (IRAK4; [3]) [µM] | DC50 (IRAK4; [4]) [µM] | IC50 (OCI-LY10) [µM]
O=C(Nc1cn([C@H]2CC[C@H](CNC[C@H]3CC[C@H](n4cc(NC(=O)c5cnn6ccc(N7CCOCC7)nc56)c(C(F)F)n4)CC3)CC2)nc1C(F)F)c1cnn2ccc(N3CCOCC3)nc12 [I-408, N-[3-(difluoromethyl)-1-[4-[[[4-[3-(difluoromethyl)-4-[(5-morpholinopyrazolo[1,5-a]pyrimidine-3-carbonyl)amino]pyrazol-1-yl]cyclohexyl]methylamino]methyl]cyclohexyl]pyrazol-4-yl]-5-morpholino-pyrazol [1,5-a] pyrimidine-3-carboxamide] | > 1 | > 1 | > 1 |  |  | 
Cn1c(=O)n(C2CCC(=O)NC2=O)c2cccc(CCCOCCCOC3CCN(C4CCC(Nc5ncnc6ccc(C#N)cc56)CC4)CC3)c21 (stereo not drawn) [I-271] | > 1 | > 1 | > 1 |  |  | 
O=C1CCC(N2Cc3c(NCCCOC4CCN(C[C@H]5CC[C@H](n6cc(NC(=O)c7cnn8ccc(N9CCOCC9)nc78)c(C(F)F)n6)CC5)CC4)cccc3C2=O)C(=O)N1 (stereo partly drawn) [I-330] |  | < 0.01 | > 1 |  |  | 
CN(C(=O)CCCNc1cccc2c1C(=O)N(C1CCC(=O)NC1=O)C2=O)C1CCN(C[C@H]2CC[C@H](n3cc(NC(=O)c4cnn5ccc(N6C[C@H]7C[C@@H]6CO7)nc45)c(C(F)F)n3)CC2)CC1 (stereo partly drawn) [I-366] | < 0.01 |  | < 0.05 |  |  | 
CN(CC1(CNc2cccc3c2C(=O)N(C2CCC(=O)NC2=O)C3=O)CCC1)C[C@H]1CC[C@H](n2cc(NC(=O)c3cnn4ccc(N5C[C@H]6C[C@@H]5CO6)nc34)c(C(F)F)n2)CC1 (stereo partly drawn) [I-491] |  |  | > 1 | 0.1 to 1 | > 1 | 
O=C1CCC(N2C(=O)c3cccc(NCCCOCCCS(=O)(=O)NC(=O)[C@H]4CC[C@H](n5cc(NC(=O)c6cnn7ccc(N8C[C@H]9CC8CO9)nc67)c(C(F)F)n5)CC4)c3C2=O)C(=O)N1 (stereo partly drawn) [I-440] | 0.1 to 1 | > 1 | > 1 |  |  | 
COc1cc(C(=O)N2CCC(CCCN(C)C[C@H]3CC[C@H](n4cc(NC(=O)c5coc(-c6ccnc(NCC7CC7)c6)n5)c(C(F)F)n4)CC3)CC2)ccc1NC(=O)[C@@H]1N[C@@H](CC(C)(C)C)[C@](C#N)(c2ccc(Cl)cc2F)[C@H]1c1cccc(Cl)c1F [I-141] | > 1 | > 1 | > 1 |  |  | 
Cn1c(=O)n(C2CCC(=O)NC2=O)c2cccc(CCCOC3CCN(C[C@H]4CC[C@H](n5cc(NC(=O)c6cnn7ccc(N[C@@H]8CCCC(F)(F)[C@@H]8N)nc67)c(C(F)F)n5)CC4)CC3)c21 (stereo partly drawn) [I-300] | 0.1 to 1 |  | 0.5 to 1 |  |  | 
Cn1c(=O)n(C2CCC(=O)NC2=O)c2cccc(CCCOC3CCN(C[C@H]4CC[C@H](n5cc(NC(=O)c6cnn7ccc(N8CCOCC8)nc67)c(C(C)(C)O)n5)CC4)CC3)c21 (stereo partly drawn) [I-216] | 0.1 to 1 |  | > 1 |  |  | 
CC(C)[C@@H](CS(=O)(=O)C(C)C)N1C(=O)[C@@](C)(CC(=O)N2CCC(CCN(C)C[C@H]3CC[C@H](n4cc(NC(=O)c5coc(-c6ccnc(NCC7CC7)c6)n5)c(C(F)F)n4)CC3)CC2)C[C@H](c2cccc(Cl)c2)[C@H]1c1ccc(Cl)cc1 [I-147] | > 1 | > 1 | > 1 |  |  | 
CN(Cc1ccc(-n2cc(NC(=O)c3coc(-c4ccnc(NCC5CC5)c4)n3)c(C(F)F)n2)cc1)C1CCN(Cc2cccc3c2n(C)c(=O)n3C2CCC(=O)NC2=O)CC1 (stereo not drawn) [I-389] | 0.01 to 0.1 | 0.01 to 0.1 | < 0.05 |  |  | 
CN(C(=O)c1coc(-c2ccnc(NCC3CC3)c2)n1)c1cn([C@H]2CC[C@H](CN(C)C3CCN(Cc4cccc5c4n(C)c(=O)n5C4CCC(=O)NC4=O)CC3)CC2)nc1C(F)F (stereo partly drawn) [I-395] | 0.1 to 1 |  | > 1 |  |  | 
CC[C@@H]1CC(=O)N[C@@H]1COc1ncc(C#C[C@H]2CC[C@H](CN(C)CCCOCCCc3cccc4c3n(C)c(=O)n4C3CCC(=O)NC3=O)CC2)c2cc(C(N)=O)c(OC)cc12 (stereo partly drawn) [I-219] | 0.01 to 0.1 | 0.01 to 0.1 | > 1 |  |  | 
CC[C@H]1C(COc2ncc(C#C[C@H]3CC[C@H](CN4CCC(OCCCc5cccc6c5c5cccnc5n6C5CCC(=O)NC5=O)CC4)CC3)c3cc(C(N)=O)c(OC)cc23)NC(=O)[C@H]1F (stereo partly drawn) [I-205] | 0.1 to 1 | 0.01 to 0.1 | > 1 |  |  | 
O=C1CCC(N2C(=O)c3cccc(NCC4CC5(CCN(C(=O)[C@H]6CC[C@H](n7cc(NC(=O)c8cnn9ccc(N%10CCNCC%10)nc89)c(C(F)F)n7)CC6)CC5)C4)c3C2=O)C(=O)N1 (stereo partly drawn) [I-370] | 0.01 to 0.1 |  | 0.1 to 0.5 |  |  | 
Cn1c(=O)n(C2CCC(=O)NC2=O)c2cccc(CCCOC3CCN(C[C@H]4CC[C@H](n5cc(NC(=O)c6cnn7ccc(NCC8CC8)nc67)c(C(F)F)n5)CC4)CC3)c21 (stereo partly drawn) [I-156] | 0.01 to 0.1 |  | > 1 |  |  | 
CN(CCCOCCCc1cccc2c1n(C)c(=O)n2[C@@H]1CCC(=O)NC1=O)C[C@H]1CC[C@H](n2cc(NC(=O)c3coc(-c4ccnc(NCC5CC5)c4)n3)c(C(F)F)n2)CC1 (single isomer, unassigned) [I-307] | 0.01 to 0.1 |  | > 1 |  |  | 
NC[C@H]1CC[C@H](n2cc(NC(=O)c3cnn4ccc(N5CCOCC5)nc34)c(C(F)F)n2)CC1 [I-313, N-[l-[4-(aminomethyl)cyclohexyl]-3-(difluoromethyl)pyrazol-4-yl]-5-morpholino-pyrazolo [1,5-a]pyrimidine-3-carboxamide] | > 1 | > 1 | > 1 |  |  | 
CN(Cc1ccc(OCCCNc2cccc3c2C(=O)N(C2CCC(=O)NC2=O)C3=O)nc1)C[C@H]1CC[C@H](n2cc(NC(=O)c3cnn4ccc(N5CCOCC5)nc34)c(C(F)F)n2)CC1 (stereo partly drawn) [I-477, N-(3-(difluoromethyl)-1-((1r,4r)-4-((((6-(3-((2-(2,6-dioxopiperidin-3-yl)-1,3-dioxoisoindolin-4-yl)amino)propoxy)pyridin-3-yl)methyl)(methyl)amino)methyl)cyclohexyl)-1H-pyrazol-4-yl)-5-morpholinopyrazolo[1,5-a] pyrimidine-3-carboxamide] |  |  | 0.5 to 1 | 0.01 to 0.1 | 0.01 to 0.1 | 
CC[C@H]1C(COc2ncc(C#C[C@H]3CC[C@H](CN(C)CCN4CCO[C@H](CCNc5cccc6c5C(=O)N(C5CCC(=O)NC5=O)C6=O)C4)CC3)c3cc(C(N)=O)c(OC)cc23)NC(=O)[C@H]1F (stereo partly drawn) [I-334] | 0.1 to 1 |  | 0.1 to 0.5 |  |  | 
CN(CCCOCCCNc1cccc2c1C(=O)N(C1CCC(=O)NC1=O)C2=O)Cc1ccc(-n2cc(NC(=O)c3coc(-c4ccnc(NCC5CC5)c4)n3)c(C(F)F)n2)cc1 (stereo not drawn) [I-392] | 0.1 to 1 | 0.01 to 0.1 | 0.1 to 0.5 |  |  | 
CN(CCCOC1CCN(C[C@H]2CC[C@H](n3cc(NC(=O)c4cnn5ccc(N6CCOCC6)nc45)c(C(F)F)n3)CC2)CC1)c1cccc2c1C(=O)N(C1CCC(=O)NC1=O)C2=O (stereo partly drawn) [I-212] | 0.01 to 0.1 |  | > 1 |  |  | 
O=C1CCC(N2C(=O)c3cccc(OCCCOC4CCN(C[C@H]5CC[C@H](n6cc(NC(=O)c7cnn8ccc(N9CCOCC9)nc78)c(C(F)F)n6)CC5)CC4)c3C2=O)C(=O)N1 (stereo partly drawn) [I-297] | 0.01 to 0.1 |  |  |  |  | > 1
COc1cc(C(=O)NCCOCCOCCN(C)C[C@H]2CC[C@H](n3cc(NC(=O)c4coc(-c5ccnc(NCC6CC6)c5)n4)c(C(F)F)n3)CC2)ccc1NC(=O)[C@@H]1N[C@@H](CC(C)(C)C)[C@](C#N)(c2ccc(Cl)cc2F)[C@H]1c1cccc(Cl)c1F [I-145] | > 1 | > 1 |  |  |  | > 1
Cn1c(=O)n(C2CCC(=O)NC2=O)c2cccc(-c3cccc(CCCOCc4ccc(-n5cc(NC(=O)c6cnn7ccc(N8CCOCC8)nc67)c(C(F)F)n5)cc4)c3)c21 (stereo not drawn) [I-409] | > 1 |  | > 1 |  |  | 

Source: patent US11352350B2, “IRAK degraders and uses thereof” (Kymera Therapeutics, Inc., priority 2018, dated 2022)
